Assay results: US9533985B2, “Sulfonamide derivative and medicinal use thereof” (EA Pharma Co., Ltd., priority 2012, dated 2017)

Key:
Type in all cases: cell-based
[1] = molecular target: T1, α4β7 integrin (Homo sapiens (Human), UniProt P13612+P26010); assay: MAdCAM-1/α4β7 integrin binding inhibitory activity evaluation test in the presence of serum (1); details: RPMI-8866 cells binding to mouse MAdCAM-1/Fc, human serum at final concentration of 50%; read-out: α4β7 with serum added, IC50
Description: (§1) The ability of test substances to inhibit the binding of a human B cell line, RPMI-8866, which is known to express α4β7 integrin, to MAdCAM-1 was measured. To 96-well microtiter plates, recombinant mouse MAdCAM-1/Fc (R&D systems) solution (1 μg/mL) diluted with buffer A (carbonate buffer, pH 9.6) was added at 50 μL/well, followed by incubation at 4° C. overnight. After washing once with PBS, Block Ace (Snow Brand Milk Products Company, Limited) was added at 150 μL/well, followed by incubation at room temperature for 2 hours. After removal, washing was conducted once with PBS. 100 μL of each test substance diluted with a binding buffer (DMEM containing 40 mM HEPES, 0.2% BSA, and 4 mM MnCl2) to various concentrations and 100 μL of RPMI-8866 cells (2×10^6 cell/mL) were added to plates coated with MAdCAM-1/Fc (5×10^5 cells/well) with human serum being contained at a final concentration of 50%, followed by incubation at 30° C. for 15 minutes to 60 minutes. After the cells were bound to each well, unbound cells were removed by washing with PBS. To the plates, buffer C (PBS containing 1.5% Triton X-100) was added at 50 μL/well to lyse the bound RPMI-8866 cells. To 30 μL of the cell lysate, 30 μL of Substrate Buffer (Promega, CytoTox 96 Non-Radioactive Cytotoxicity Assay) was added, and the reaction was allowed to proceed at room temperature in a dark place for 30 minutes. To each well, 30 μL of Stop Solution (Promega, CytoTox 96 Non-Radioactive Cytotoxicity Assay) was added, and the absorbance at 490 nm was measured by using a plate reader. Here, by the obtained absorbance, the activity of the lactate dehydrogenase (LDH) dissolved into the supernatant of each well was detected. In other words, the absorbance was proportional to the number of the RPMI-8866 cells bound to MAdCAM-1 and remaining on the plate. The test was duplicated. The binding ratios of the cells at various concentrations were determined, with the absorbance of a well containing no test substance taken as 100%. Then, the concentration IC50, at which 50% binding inhibition was achieved, was calculated.

[2] = molecular target: α4β1 integrin (Homo sapiens (Human), UniProt P05556+P13612); assay: VCAM-1/α4β1 integrin binding inhibitory activity evaluation test (Jurkat cell adhesion to VCAM-1/Fc); details: Jurkat cells binding to recombinant human VCAM-1/Fc
Description: The ability of test substances to inhibit the binding of a human T-cell line, Jurkat, which is known to express α4β1 integrin, to VCAM-1 was measured. To 96-well microtiter plates, recombinant human VCAM-1/Fc (R&D systems) solution (1 μg/mL) diluted with buffer A (carbonate buffer, pH 9.6) was added at 50 μL/well, followed by incubation at 4° C. overnight. After washing once with PBS, Block Ace (Snow Brand Milk Products Company, Limited) was added at 150 μL/well, followed by incubation at room temperature for 2 hours. After removal, washing was conducted once with PBS. 100 μL of each test substance diluted with a binding buffer (DMEM containing 40 mM HEPES, 0.2% BSA, and 4 mM MnCl2) to various concentrations and 100 μL of the Jurkat cells (2×10^6 cell/mL) were added to the plates coated with VCAM-1/Fc (5×10^5 cells/well), followed by incubation at 30° C. for 15 minutes to 60 minutes. After the cells were bound to each well, unbound cells were removed by washing with PBS. To the plates, buffer C (PBS containing 1.5% Triton X-100) was added at 50 μL/well to lyse the bound Jurkat cells. To 30 μL of the cell lysate, 30 μL of Substrate Buffer (Promega, CytoTox 96 Non-Radioactive Cytotoxicity Assay) was added, and the reaction was allowed to proceed at room temperature in a dark place for 30 minutes. To each well, 30 μL of Stop Solution (Promega, CytoTox 96 Non-Radioactive Cytotoxicity Assay) was added, and the absorbance at 490 nm was measured by using a plate reader. Here, by the obtained absorbance, the activity of the lactate dehydrogenase (LDH) dissolved into the supernatant of each well was detected. In other words, the absorbance was proportional to the number of the Jurkat cells bound to VCAM-1 and remaining on the plate. The test was duplicated. The binding ratios of the cells at various concentrations were determined, with the absorbance of a well containing no test substances taken as 100%. Then, the concentration IC50, at which 50% binding inhibition was achieved, was calculated. […] Note that, among the compounds synthesized in the corresponding Examples, the compounds in the free form (Compounds A-1 to A-39) were used as the test compounds. Hereinafter, the same shall apply.

[3] = molecular target: T1, α4β7 integrin; assay: MAdCAM-1/α4β7 integrin binding inhibitory activity evaluation test (RPMI-8866 cell adhesion to MAdCAM-1/Fc); details: for Selectivity: IC50 in VCAM-1/α4β1 test divided by IC50 in MAdCAM-1/α4β7 test; for IC50: RPMI-8866 cells binding to recombinant mouse MAdCAM-1/Fc, no serum
Description: as §1, with “systems) solution (0.75 μg/mL) diluted” for “systems) solution (1 μg/mL) diluted”, “A (carbonate buffer solution, pH 9.6)” for “A (carbonate buffer, pH 9.6)”, “diluted with binding buffer” for “diluted with a binding buffer”, “added to the plates coated” for “added to plates coated”, “MAdCAM-1/Fc (5×10^5 cells/well), followed by” for “MAdCAM-1/Fc (5×10^5 cells/well) with human serum being contained at a final concentration of 50%, followed by”, “was calculated. […] Note that the selectivity in the table was determined by dividing the IC50 value in VCAM-1/α4β1 Integrin Binding Inhibitory Activity Evaluation Test by the IC50 value in the MAdCAM-1/α4β7 integrin binding inhibitory activity evaluation test.” for “was calculated.”

Chain of α4β1 integrin (P13612 34-1032): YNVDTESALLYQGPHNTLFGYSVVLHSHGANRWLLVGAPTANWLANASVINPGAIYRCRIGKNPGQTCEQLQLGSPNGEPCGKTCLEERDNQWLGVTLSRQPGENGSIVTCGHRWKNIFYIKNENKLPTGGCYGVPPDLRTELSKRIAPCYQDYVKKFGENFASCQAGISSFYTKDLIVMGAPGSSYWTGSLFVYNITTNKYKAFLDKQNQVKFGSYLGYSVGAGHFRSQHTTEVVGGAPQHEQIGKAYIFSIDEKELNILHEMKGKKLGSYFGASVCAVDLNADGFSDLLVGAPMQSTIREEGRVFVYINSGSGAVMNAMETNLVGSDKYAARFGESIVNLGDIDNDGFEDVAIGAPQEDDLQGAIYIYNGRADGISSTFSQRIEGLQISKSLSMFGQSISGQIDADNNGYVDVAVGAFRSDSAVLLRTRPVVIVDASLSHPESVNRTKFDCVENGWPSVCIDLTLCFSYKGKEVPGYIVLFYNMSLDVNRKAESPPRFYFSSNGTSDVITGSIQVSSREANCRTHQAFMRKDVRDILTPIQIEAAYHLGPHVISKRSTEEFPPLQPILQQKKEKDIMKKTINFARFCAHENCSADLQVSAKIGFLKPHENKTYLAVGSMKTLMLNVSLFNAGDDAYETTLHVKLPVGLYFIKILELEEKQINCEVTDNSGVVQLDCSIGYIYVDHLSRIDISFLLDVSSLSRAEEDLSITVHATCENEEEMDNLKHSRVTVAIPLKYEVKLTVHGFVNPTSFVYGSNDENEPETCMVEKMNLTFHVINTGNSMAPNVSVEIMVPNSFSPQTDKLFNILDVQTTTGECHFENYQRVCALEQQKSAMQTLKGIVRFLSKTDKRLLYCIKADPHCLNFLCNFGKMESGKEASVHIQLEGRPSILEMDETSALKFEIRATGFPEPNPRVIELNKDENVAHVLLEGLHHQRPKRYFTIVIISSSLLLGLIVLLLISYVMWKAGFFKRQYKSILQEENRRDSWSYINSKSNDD
Chain of α4β1 integrin (P05556 21-798): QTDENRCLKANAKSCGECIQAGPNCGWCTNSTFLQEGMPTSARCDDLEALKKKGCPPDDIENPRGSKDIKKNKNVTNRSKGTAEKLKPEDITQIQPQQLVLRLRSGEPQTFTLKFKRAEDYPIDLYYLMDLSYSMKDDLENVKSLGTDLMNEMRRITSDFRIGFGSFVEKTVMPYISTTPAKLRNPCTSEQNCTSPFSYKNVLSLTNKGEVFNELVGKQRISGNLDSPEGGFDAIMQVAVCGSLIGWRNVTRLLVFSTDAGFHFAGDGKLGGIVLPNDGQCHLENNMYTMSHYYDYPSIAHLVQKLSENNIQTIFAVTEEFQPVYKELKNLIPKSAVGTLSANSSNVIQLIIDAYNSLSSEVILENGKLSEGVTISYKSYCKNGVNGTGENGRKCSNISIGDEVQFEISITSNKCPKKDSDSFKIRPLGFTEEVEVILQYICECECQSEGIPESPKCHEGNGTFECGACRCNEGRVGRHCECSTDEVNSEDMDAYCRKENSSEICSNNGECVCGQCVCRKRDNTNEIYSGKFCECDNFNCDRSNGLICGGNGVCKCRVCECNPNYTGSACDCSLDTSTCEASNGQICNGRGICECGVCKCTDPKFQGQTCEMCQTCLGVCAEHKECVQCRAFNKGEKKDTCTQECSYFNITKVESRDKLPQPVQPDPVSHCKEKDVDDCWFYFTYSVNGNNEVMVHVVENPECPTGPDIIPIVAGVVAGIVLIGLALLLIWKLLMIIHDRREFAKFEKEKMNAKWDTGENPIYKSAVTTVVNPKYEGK
T1 sequence (P13612 34-1032): as the sequence (P13612 34-1032) above
T1 sequence (P26010 20-798): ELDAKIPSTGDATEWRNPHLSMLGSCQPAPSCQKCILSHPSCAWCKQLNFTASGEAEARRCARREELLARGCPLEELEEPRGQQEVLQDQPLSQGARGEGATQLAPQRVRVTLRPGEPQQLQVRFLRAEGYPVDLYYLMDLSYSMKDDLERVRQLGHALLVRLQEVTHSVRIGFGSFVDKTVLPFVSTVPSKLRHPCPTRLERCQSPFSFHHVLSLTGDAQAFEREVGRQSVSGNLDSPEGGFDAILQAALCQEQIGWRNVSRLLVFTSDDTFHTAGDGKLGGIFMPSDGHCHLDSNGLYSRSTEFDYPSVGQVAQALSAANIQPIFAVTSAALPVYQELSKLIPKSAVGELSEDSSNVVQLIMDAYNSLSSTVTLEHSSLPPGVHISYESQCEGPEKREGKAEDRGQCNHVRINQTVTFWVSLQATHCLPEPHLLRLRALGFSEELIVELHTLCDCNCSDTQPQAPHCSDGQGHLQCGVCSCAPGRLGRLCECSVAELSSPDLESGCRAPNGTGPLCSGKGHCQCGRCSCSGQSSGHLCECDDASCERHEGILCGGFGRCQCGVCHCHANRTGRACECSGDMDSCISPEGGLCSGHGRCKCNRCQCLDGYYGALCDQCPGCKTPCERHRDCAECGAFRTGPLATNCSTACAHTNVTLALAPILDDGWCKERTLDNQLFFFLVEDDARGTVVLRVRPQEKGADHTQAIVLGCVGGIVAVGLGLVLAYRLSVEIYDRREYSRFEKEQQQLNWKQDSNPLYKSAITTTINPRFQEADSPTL

Row | IC50 [1] [nM] | IC50 [2] [nM] | Selectivity [3] | IC50 [3] [nM] | Structure (SMILES)
1 | 25 | 330 | 770 | 0.43 | Cc1cc(-c2ccc(S(=O)(=O)Nc3cc(F)c(C(=O)N[C@@H](Cc4ccc(-n5c(=O)c6ccncc6n(C)c5=O)cc4)C(=O)O)c(F)c3)cc2)ccn1 [Example 49, N-[2,6-Difluoro-4-({[4-(2-methylpyridin-4-yl)phenyl]sulfonyl}amino)benzoyl]-4-(1-methyl-2,4-dioxo-1,4-dihydropyrido[3,4-d]pyrimidin-3(2H)-yl)-L-phenylalanine]
2 | 1.3 | 31 | 150 | 0.21 | Cn1c(=O)n(-c2ccc(C[C@H](NC(=O)c3c(F)cc(NS(=O)(=O)c4ccc(C5=CCNCC5)cc4)cc3F)C(=O)O)cc2)c(=O)c2ccncc21 [Example 69, N-[2,6-Difluoro-4-({[4-(1,2,3,6-tetrahydropyridin-4-yl)phenyl]sulfonyl}amino)benzoyl]-4-(1-methyl-2,4-dioxo-1,4-dihydropyrido[3,4-d]pyrimidin-3(2H)-yl)-L-phenylalanine]
3 | 9.7 | 420 | 750 | 0.56 | Cc1cnccc1-c1ccc(S(=O)(=O)Nc2cc(F)c(C(=O)N[C@@H](Cc3ccc(-n4c(=O)c5ccncc5n(C)c4=O)cc3)C(=O)O)c(F)c2)cc1 [Example 65, N-[2,6-Difluoro-4-({[4-(3-methylpyridin-4-yl)phenyl]sulfonyl}amino)benzoyl]-4-(1-methyl-2,4-dioxo-1,4-dihydropyrido[3,4-d]pyrimidin-3(2H)-yl)-L-phenylalanine]
4 | 9.1 | 150 | 560 | 0.27 | Cn1cnc2c1c(=O)n(-c1ccc(C[C@H](NC(=O)c3c(F)cc(NS(=O)(=O)c4ccc(-c5ncccn5)cc4)cc3F)C(=O)O)cc1)c(=O)n2C [Example 77, N-(2,6-Difluoro-4-{[(4-pyrimidin-2-yl-phenyl)sulfonyl]amino}benzoyl)-4-(3,7-dimethyl-2,6-dioxo-2,3,6,7-tetrahydro-1H-purin-1-yl)-L-phenylalanine]
5 | 12 | 220 | 240 | 0.9 | Cn1c(=O)n(-c2ccc(C[C@H](NC(=O)c3c(F)cc(NS(=O)(=O)c4ccc(-n5cccc5)cc4)cc3F)C(=O)O)cc2)c(=O)c2ccncc21 [Example 43, N-[2,6-Difluoro-4-({[4-(1H-pyrrol-1-yl)phenyl]sulfonyl}amino)benzoyl]-4-(1-methyl-2,4-dioxo-1,4-dihydropyrido[3,4-d]pyrimidin-3(2H)-yl)-L-phenylalanine]

More lines, now with the values behind:

Row | Structure (SMILES) | IC50 [1] [nM] | IC50 [2] [nM] | Selectivity [3] | IC50 [3] [nM]
6 | Cn1c(=O)n(-c2ccc(C[C@H](NC(=O)c3c(F)cc(NS(=O)(=O)c4ccc(-c5cncnc5)cn4)cc3F)C(=O)O)cc2)c(=O)c2ccncc21 [Example 54, N-(2,6-Difluoro-4-{[(5-pyrimidin-5-yl-pyridin-2-yl)sulfonyl]amino}benzoyl)-4-(1-methyl-2,4-dioxo-1,4-dihydropyrido[3,4-d]pyrimidin-3(2H)-yl)-L-phenylalanine] | 1.6 | 18 | 230 | 0.077
7 | COc1ccc2c(c1)c(=O)n(-c1ccc(C[C@H](NC(=O)c3c(F)cc(NS(=O)(=O)c4ccc(-n5ccnn5)cc4)cc3F)C(=O)O)cc1)c(=O)n2C [Example 51, N-[2,6-Difluoro-4-({[4-(1H-1,2,3-triazol-1-yl)phenyl]sulfonyl}amino)benzoyl]-4-(6-methoxy-1-methyl-2,4-dioxo-1,4-dihydroquinazolin-3(2H)-yl)-L-phenylalanine] | 21 | 1500 | 220 | 6.9
8 | Cn1c(=O)n(-c2ccc(C[C@H](NC(=O)c3c(F)cc(NS(=O)(=O)c4ccc(-n5cccn5)cc4)cc3F)C(=O)O)cc2)c(=O)c2ccncc21 [Example 62, N-[2,6-Difluoro-4-({[4-(1H-pyrazol-1-yl)phenyl]sulfonyl}amino)benzoyl]-4-(1-methyl-2,4-dioxo-1,4-dihydropyrido[3,4-d]pyrimidin-3(2H)-yl)-L-phenylalanine] | 13 | 100 | 160 | 0.64
9 | Cn1c(=O)n(-c2ccc(C[C@H](NC(=O)c3c(F)cc(NS(=O)(=O)c4ccc(-c5ncc[nH]5)cc4)cc3F)C(=O)O)cc2)c(=O)c2ccncc21 [Example 48, N-[2,6-Difluoro-4-({[4-(1H-imidazol-2-yl)phenyl]sulfonyl}amino)benzoyl]-4-(1-methyl-2,4-dioxo-1,4-dihydropyrido[3,4-d]pyrimidin-3(2H)-yl)-L-phenylalanine] | 14 | 54 | 230 | 0.24
10 | Cn1ccc(=O)n(-c2ccc(C[C@H](NC(=O)c3c(F)cc(NS(=O)(=O)c4ccc(-n5cncn5)cn4)cc3F)C(=O)O)cc2)c1=O [Example 56, N-[2,6-Difluoro-4-({[5-(1H-1,2,4-triazol-1-yl)pyridin-2-yl]sulfonyl}amino)benzoyl]-4-(3-methyl-2,6-dioxo-3,6-dihydropyrimidin-1(2H)-yl)-L-phenylalanine] | 5.4 | 160 | 80 | 2
